According to PMC9555310, “Novel inhibitors and activity-based probes targeting serine proteases” (Frontiers in Chemistry, 2022):

Assays:
chymotrypsin = target: T1, chymotrypsin (Bos taurus, UniProt P00766); test: Off-target study, residual activity after 2 min pre-incubation: chymotrypsin; assay type: biochemical, bovine; conditions: 2 min incubation, PBS pH 7.4, 37°C; for off-target inhibition of chymotrypsin: residual activity vs DMF control, NAP830 at concentrations up to 50 μM
T1 construct: purchased Sigma-Aldrich (supplement); Calbiochem; host or cells: bovine pancreas
Protocol: (§1) FIGURE 5 Results of “off-target“ studies. NAP849 (A), NAP800 (B) and NAP830 (C) were tested against trypsin, chymotrypsin, and NE. Samples (approx. 0.01 μg) of each protease were incubated with the indicated concentrations of test compound for 2 min, in PBS, pH 7.4, at 37°C. (D) NAP858, NAP962 and NAP849 were tested against cathepsin B at the indicated concentrations in 0.1 M MES, pH 6.1, containing 1 mM EDTA, for 2 min, at 37°C. Aliquots (approx. 10 μL) of each incubation sample were then added to a fresh sample (990 μL) of PBS for the serine proteases and MES for cathepsin B, containing the appropriate substrate for each protease, to measure their residual activity. Controls incubations were performed in the absence of test compound, but in the presence of an appropriate volume of DMF vehicle used to prepare stock solutions of each inhibitor under study.
(§2) Two elements were investigated regarding possible “off-target” effects–determining the extent of cross-reactivity of each of the new putative ABPs between the various serine protease family members and assessing their collateral inhibitory action against another mechanistic class–the cysteine proteases, using cathepsin B (CTSB) as an exemplar.
(§3) For assays requiring a pre-incubation step enzyme and inhibitor in assay buffer were incubated together, at 37 °C, for 2 min, with gentle agitation. The reaction mixture was then aliquoted (50 μL) in duplicate on a black 96-well microtitre plate followed by addition of substrate to make a final concentration of 50 μM in a total volume of 100 μL. The fluorescence production was then measured as described for the previous procedure.
(§4) Figure ST1. Results of “off-target” studies. NAP559 and NAP533 were tested against chymotrypsin, and NE. Samples (approx. 0.01 mg) of each protease were incubated with the indicated concentrations of test compound for 2 min, in PBS, pH 7.4, at 37 °C. Aliquots (approx. 10 µL) of each incubation sample were then added to a fresh sample (990 µL) of PBS containing the appropriate substrate for each protease, to measure their residual activity. Controls incubations were performed in the absence of test compound, but in the presence of an appropriate volume of DMF vehicle used to prepare stock solutions of each inhibitor under study.

neutrophil elastase (NE) = target: T2, neutrophil elastase (NE) (Homo sapiens, UniProt P08246); test: Off-target study, residual activity after 2 min pre-incubation: NE; assay type: biochemical; conditions: 2 min incubation, PBS pH 7.4, 37°C; for off-target inhibition of neutrophil elastase: residual activity vs DMF control, NAP830 at concentrations up to 50 μM
T2 construct: purchased Calbiochem
T2 sequence (P08246 30-267): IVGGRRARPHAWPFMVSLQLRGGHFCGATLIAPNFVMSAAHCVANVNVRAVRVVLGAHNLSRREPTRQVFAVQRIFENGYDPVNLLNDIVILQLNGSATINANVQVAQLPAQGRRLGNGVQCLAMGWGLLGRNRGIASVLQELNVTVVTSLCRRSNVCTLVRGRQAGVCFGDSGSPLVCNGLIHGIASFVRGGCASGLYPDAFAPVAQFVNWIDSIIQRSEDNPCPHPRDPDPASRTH
Protocol: as §1, §2, §3, §4

trypsin = target: T3, trypsin (Sus scrofa, UniProt P00761); test: Off-target study, residual activity after 2 min pre-incubation: trypsin; assay type: biochemical, porcine; conditions: 2 min incubation, PBS pH 7.4, 37°C, residual activity vs DMF control
T3 construct: purchased Sigma-Aldrich; host or cells: porcine pancreas
Protocol: FIGURE 5 Results of “off-target“ studies. NAP849 (A), NAP800 (B) and NAP830 (C) were tested against trypsin, chymotrypsin, and NE. Samples (approx. 0.01 μg) of each protease were incubated with the indicated concentrations of test compound for 2 min, in PBS, pH 7.4, at 37°C. (D) NAP858, NAP962 and NAP849 were tested against cathepsin B at the indicated concentrations in 0.1 M MES, pH 6.1, containing 1 mM EDTA, for 2 min, at 37°C. Aliquots (approx. 10 μL) of each incubation sample were then added to a fresh sample (990 μL) of PBS for the serine proteases and MES for cathepsin B, containing the appropriate substrate for each protease, to measure their residual activity. Controls incubations were performed in the absence of test compound, but in the presence of an appropriate volume of DMF vehicle used to prepare stock solutions of each inhibitor under study. […]
For assays requiring a pre-incubation step enzyme and inhibitor in assay buffer were incubated together, at 37 °C, for 2 min, with gentle agitation. […] The fluorescence production was then measured as described for the previous procedure.

plasmin = target: T4, plasmin (Homo sapiens, UniProt P00747); test: Activity-based profiling of plasmin (SDS-PAGE, streptavidin-HRP western blot); assay type: binding; conditions: 50 μM, 30 min, 37°C
T4 construct: purchased Sigma-Aldrich (supplement); R&D Systems; host or cells: human plasma
Protocol: Samples of recombinant protease (trypsin, plasmin, thrombin, chymotrypsin, or HNE, as indicated in the relevant figure legends) were treated with each of the newly synthesized compounds at a concentration of 50 μM, for 30 min, at 37°C. A control sample (no ABP) was prepared by treating the recombinant protease with solvent vehicle (DMF) only, used to prepare the stock solution of each ABP. Samples were also pre-treated (±90°C for 30 min) before being incubated with each putative ABP. With trypsin and thrombin, further samples were prepared where Z-Arg^P-(OPh)2 or NAP559, respectively, was added 30 min prior to the addition of the ABP under examination. All treated samples were then denatured with SDS containing reducing treatment buffer (10 min at 95°C), followed by resolution by SDS-PAGE and subjected to Western blotting. Resolved proteins were then transferred onto the nitrocellulose membrane and labeled with streptavidin-HRP. The ABP–protease complex was then visualized following treatment with Luminata Forte HRP substrate.
FIGURE 8 Activity Based Profiling of Trypsin-like serine proteases. (A) trypsin was treated (±) with NAP830, for 30 min, at 37°C (± pretreatment with Z-Arg^P-(OPh)2). (B) thrombin (1 […]) was pre-treated with various concentrations of NAP559 (30 min, at 37°C) followed by treatment (±) with NAP858 for 30 min, at 37°C. (C) Plasmin was treated in turn with QUBTL1, NAP962 and NAP830, (± pre-heat inactivation at 95°C, for 10 min) for 30 min, at 37°C. […]
Following transfer, the extra protein binding sites on the membrane were blocked by addition of 3% (w/v) BSA in TBST (20 mM Tris, 137 mM NaCl, 1% (v/v) Tween 20, pH 7.6) and agitated gently at room temperature for 30 minutes. The biotin-labelled proteases were then detected by addition of Streptavidin-HRP (Vector Laboratories) in 3% (w/v) BSA in TBST at a concentration of 1:20000, for 1 hour at room temperature. […]

T4 sequence (P00747 581-810 limits assumed): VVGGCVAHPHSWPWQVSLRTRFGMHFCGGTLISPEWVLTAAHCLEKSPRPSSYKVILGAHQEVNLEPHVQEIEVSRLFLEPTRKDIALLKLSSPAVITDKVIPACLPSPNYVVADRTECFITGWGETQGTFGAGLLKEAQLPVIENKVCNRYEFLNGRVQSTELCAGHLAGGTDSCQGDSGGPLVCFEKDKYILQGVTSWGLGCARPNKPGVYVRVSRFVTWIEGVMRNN
T4 sequence (P00747 97-580 partner limits assumed): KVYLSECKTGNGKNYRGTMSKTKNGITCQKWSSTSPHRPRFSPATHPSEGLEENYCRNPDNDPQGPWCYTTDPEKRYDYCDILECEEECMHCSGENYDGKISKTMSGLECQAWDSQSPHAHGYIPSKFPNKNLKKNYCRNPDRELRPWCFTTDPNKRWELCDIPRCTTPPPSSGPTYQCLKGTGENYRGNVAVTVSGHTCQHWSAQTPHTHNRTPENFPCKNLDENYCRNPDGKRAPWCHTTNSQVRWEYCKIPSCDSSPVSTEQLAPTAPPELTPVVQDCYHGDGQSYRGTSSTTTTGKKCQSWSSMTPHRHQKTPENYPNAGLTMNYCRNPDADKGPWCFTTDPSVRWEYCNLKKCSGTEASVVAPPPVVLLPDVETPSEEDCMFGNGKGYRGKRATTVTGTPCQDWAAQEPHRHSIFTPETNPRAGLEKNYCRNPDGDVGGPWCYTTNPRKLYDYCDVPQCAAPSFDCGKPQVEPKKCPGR
T3 sequence (P00761 9-231): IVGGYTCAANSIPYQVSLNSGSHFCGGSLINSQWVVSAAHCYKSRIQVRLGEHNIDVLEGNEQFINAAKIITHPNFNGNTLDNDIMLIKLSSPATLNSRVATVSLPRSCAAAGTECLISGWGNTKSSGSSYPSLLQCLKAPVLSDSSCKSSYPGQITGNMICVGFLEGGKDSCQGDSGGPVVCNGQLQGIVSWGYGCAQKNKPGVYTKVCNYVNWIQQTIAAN

off-target inhibition of chymotrypsin (chymotrypsin)	off-target inhibition of trypsin (trypsin)	off-target inhibition of neutrophil elastase (neutrophil elastase (NE))	Compound	labelling of plasmin by ABP (western blot) (plasmin)	also measured
no “off-target” or collateral inhibition	no “off-target” or collateral inhibition		CC(C)N(CC(=O)NCC(=O)NCC(=O)NCCCOCCOCCOCCCNC(=O)CCCCC1SCC2NC(=O)NC21)C(=O)ON1C(=O)CCC1=O (stereo not drawn) [NAP800, Succinimidoyl-CO-NVal-Gly-Gly-PEG-Biotin]		
no “off-target” effects		no “off-target” effects	NCCCCN(CC(=O)NCC(=O)NCC(=O)NCCCOCCOCCOCCCNC(=O)CCCCC1SCC2NC(=O)NC21)C(=O)ON1C(=O)CCC1=O (stereo not drawn) [NAP830, Succinimidoyl-CO-NLys-Gly-Gly-PEG-Biotin]	A band corresponding to the light (catalytic) chain of plasmin (26 kDa) was visible	

Continued, compound first:

Compound	off-target inhibition of chymotrypsin (chymotrypsin)	off-target inhibition of trypsin (trypsin)	off-target inhibition of neutrophil elastase (neutrophil elastase (NE))	labelling of plasmin by ABP (western blot) (plasmin)	also measured
N=C(N)NCCCN(CC(=O)N1CCC[C@H]1C(=O)N(CC(N)=O)Cc1ccccc1)C(=O)ON1C(=O)CCC1=O [NAP559, Succinimidoyl-CO-NArg-D-Pro-NPhe-NH2]					inhibition of chymotrypsin (chymotrypsin; highest concentration (50 μM)): < 5 % of control; inhibition of NE (neutrophil elastase (NE); highest concentration (50 μM)): < 5 % of control
O=C(CCCCC1SCC2NC(=O)NC21)NCCCOCCOCCOCCCNC(=O)CNC(=O)CNC(=O)CN(Cc1ccccc1)C(=O)ON1C(=O)CCC1=O (stereo not drawn) [NAP849, Succinimidoyl-CO-NPhe-Gly-Gly-PEG-Biotin]		complete absence of inhibition	complete absence of inhibition		
CC(C)N(CC(=O)NCCCOCCOCCOCCCNC(=O)CCCCC1SCC2NC(=O)NC21)C(=O)CN(Cc1ccccc1)C(=O)CN(CCCCN)C(=O)ON1C(=O)CCC1=O (stereo not shown) [NAP962, Succinimidoyl-CO-NLys-NPhe-NVal-PEG-Biotin]				A band corresponding to the light (catalytic) chain of plasmin (26 kDa) was visible	
